Active and inactive are the calls of the source. How the calls were made is not given here.

Data on three compounds can be found in PubChem BioAssay AID1259407 (Chemical Carcinogenesis Research Information System (CCRIS), 2018).

The data set relates to CCRIS mutagenicity, Ames/micronucleus/aberration tests. Put plainly: CCRIS mutagenicity studies. From the text: The CCRIS database contains chemical records with carcinogenicity, mutagenicity, tumor promotion, and tumor inhibition test results. It was developed by the National Cancer Institute (NCI). Data are derived from studies cited in primary journals, current awareness tools, NCI reports, and other sources. Test results have been reviewed by experts in carcinogenesis and mutagenesis.
CCRIS provides historical information from the years 1985 - 2011. It is no longer updated.
This is an archive assay for CCRIS mutagenicity studies.

As to `COc1c2occc2cc2ccc(=O)oc12`, the mutagenic call reads like this: (Test System: AMES SALMONELLA TYPHIMURIUM, Strain/Indicator: TA92, Metabolic Activation: NONE, Method: SPOT TEST) “inactive; negative”; (Test System: AMES SALMONELLA TYPHIMURIUM, Strain/Indicator: TA92, Metabolic Activation: RAT, LIVER, S-9, AROCLOR 1254, Method: SPOT TEST) “inactive; negative”; (Test System: AMES SALMONELLA TYPHIMURIUM, Strain/Indicator: TA94, Metabolic Activation: NONE, Method: SPOT TEST) “inactive; negative”; (Test System: AMES SALMONELLA TYPHIMURIUM, Strain/Indicator: TA94, Metabolic Activation: RAT, LIVER, S-9, AROCLOR 1254, Method: SPOT TEST) “inactive; negative”; (Test System: AMES SALMONELLA TYPHIMURIUM, Strain/Indicator: TA97, Metabolic Activation: NONE, Method: SPOT TEST) “inactive; negative”; (Test System: AMES SALMONELLA TYPHIMURIUM, Strain/Indicator: TA97, Metabolic Activation: RAT, LIVER, S-9, AROCLOR 1254, Method: SPOT TEST) “inactive; negative”. The mutagenic call (Test System: AMES SALMONELLA TYPHIMURIUM, Strain/Indicator: TA98, Metabolic Activation: HAMSTER, LIVER, S-9 (30%), AROCLOR 1254, Method: PREINCUBATION) was “inactive; negative”; the mutagenic call (Test System: AMES SALMONELLA TYPHIMURIUM, Strain/Indicator: TA98, Metabolic Activation: NONE, Method: PREINCUBATION) was “inactive; negative”; the mutagenic call (Test System: AMES SALMONELLA TYPHIMURIUM, Strain/Indicator: TA98, Metabolic Activation: NONE, Method: SPOT TEST) was “inactive; negative”; the mutagenic call (Test System: AMES SALMONELLA TYPHIMURIUM, Strain/Indicator: TA98, Metabolic Activation: NONE, Method: STANDARD PLATE) was “inactive; negative”; the mutagenic call (Test System: AMES SALMONELLA TYPHIMURIUM, Strain/Indicator: TA98, Metabolic Activation: RAT, LIVER, S-9, AROCLOR 1254, Method: SPOT TEST) was “inactive; negative”; the mutagenic call (Test System: AMES SALMONELLA TYPHIMURIUM, Strain/Indicator: TA98, Metabolic Activation: RAT, LIVER, S-9, PHENOBARBITAL, Method: STANDARD PLATE) is “inactive; negative”. Moreover, the mutagenic call is “active; positive” (Test System: AMES SALMONELLA TYPHIMURIUM, Strain/Indicator: TA100, Metabolic Activation: HAMSTER, LIVER, S-9 (5%, 10% OR 30%), AROCLOR 1254, Method: PREINCUBATION); “inactive; negative” (Test System: AMES SALMONELLA TYPHIMURIUM, Strain/Indicator: TA100, Metabolic Activation: NONE, Method: PREINCUBATION); “inactive; negative” (Test System: AMES SALMONELLA TYPHIMURIUM, Strain/Indicator: TA100, Metabolic Activation: NONE, Method: SPOT TEST); “inactive; negative” (Test System: AMES SALMONELLA TYPHIMURIUM, Strain/Indicator: TA100, Metabolic Activation: RAT, LIVER, S-9 (10%), AROCLOR 1254, Method: PREINCUBATION); “inactive; negative” (Test System: AMES SALMONELLA TYPHIMURIUM, Strain/Indicator: TA100, Metabolic Activation: RAT, LIVER, S-9, AROCLOR 1254, Method: SPOT TEST); “active; positive” (Test System: AMES SALMONELLA TYPHIMURIUM, Strain/Indicator: TA102, Metabolic Activation: HAMSTER, LIVER, S-9 (5%), AROCLOR 1254, Method: PREINCUBATION). Also, the mutagenic call runs as follows: (Test System: AMES SALMONELLA TYPHIMURIUM, Strain/Indicator: TA102, Metabolic Activation: NONE, Method: PREINCUBATION) “inactive; negative”; (Test System: AMES SALMONELLA TYPHIMURIUM, Strain/Indicator: TA102, Metabolic Activation: NONE, Method: SPOT TEST) “inactive; negative”; (Test System: AMES SALMONELLA TYPHIMURIUM, Strain/Indicator: TA102, Metabolic Activation: RAT, LIVER, S-9 (5%), AROCLOR 1254, Method: PREINCUBATION) “active; positive”; (Test System: AMES SALMONELLA TYPHIMURIUM, Strain/Indicator: TA102, Metabolic Activation: RAT, LIVER, S-9, AROCLOR 1254, Method: SPOT TEST) “inactive; negative”; (Test System: AMES SALMONELLA TYPHIMURIUM, Strain/Indicator: TA104, Metabolic Activation: HAMSTER, LIVER, S-9 (30%), AROCLOR 1254, Method: PREINCUBATION) “active; positive”; (Test System: AMES SALMONELLA TYPHIMURIUM, Strain/Indicator: TA104, Metabolic Activation: RAT, LIVER, S-9 (5% OR 10%), AROCLOR 1254, Method: PREINCUBATION) “active; positive”. Also, the mutagenic call is “active; positive” (Test System: AMES SALMONELLA TYPHIMURIUM, Strain/Indicator: TA104, Metabolic Activation: RAT, LIVER, S-9(30%), AROCLOR 1254, Method: PREINCUBATION); “inactive; negative” (Test System: AMES SALMONELLA TYPHIMURIUM, Strain/Indicator: TA1535, Metabolic Activation: HAMSTER, LIVER, S-9 (30%), AROCLOR 1254, Method: PREINCUBATION); “inactive; negative” (Test System: AMES SALMONELLA TYPHIMURIUM, Strain/Indicator: TA1535, Metabolic Activation: NONE, Method: PREINCUBATION); “inactive; negative” (Test System: AMES SALMONELLA TYPHIMURIUM, Strain/Indicator: TA1535, Metabolic Activation: RAT, LIVER, S-9 (30%), AROCLOR 1254, Method: PREINCUBATION).
Take `C=CCS(=O)(=O)CC=C`: the mutagenic call (End Point: In vivo micronucleus, Test System: Peripheral blood reticulocytes, Species: Mouse, Strain/Sex: F1 (Big Blue x A/J) transgenic/Male and female, Route: Oral) is “inactive; negative”.
For `CC1(C)CC(C(N)=O)C(C)(C)N1[O]` (stereo not given), under “Test System: AMES SALMONELLA TYPHIMURIUM, Strain/Indicator: TA100, Metabolic Activation: NONE, Method: STANDARD PLATE”, the mutagenic call was “inactive; negative”.
